From US20100184820A1, “COMBINATIONS COMPRISING STAUROSPORINES” (priority 2006, published 2010)
Where two headings read alike, the source gives them in different places.

Tests used:
Type in all cases: cell-based, human
[1] = tested on: HMC-1.2 cells; experiment: 3H-thymidine incorporation assay; conditions: for IC50: Homo sapiens, read-out: 3H-thymidine uptake (IC50) HMC-1.2
Description: (§1) The human mast cell line HMC-1 generated from leukemic cells in a patient with MCL48 are obtained (Mayo Clinic, Rochester, Minn.). […] HMC-1 cells are re-thawed from an original stock every 4 to 8 weeks and passaged weekly. As control of ‘phenotypic stability’, HMC-1 cells are periodically checked for expression of KIT and the down-modulating effect of IL-4 (100 U/ml, 48 hours).
(§2) In a separate set of experiments, HMC-1 cells are transfected with mcl-1-specific ASO before being exposed to inhibitory drugs (see below). […] After exposure to drugs or/and ASO, cells are subjected to ^3H-thymidine uptake experiments, analysis of cell viability and apoptosis, or Western blotting.
(§3) Thereafter, 1 μCi ^3H-thymidine is added to each well. […] Filters are then air-dried, and the bound radioactivity is measured in a β-counter (Top-Count NXT, Packard Bioscience). All experiments are performed in triplicates. Cell viability is determined by the trypan blue exclusion test. The percentage of apoptotic cells is determined on Wright-Giemsa-stained cytospin slides employing conventional cytomorphologic criteria.

[2] = tested on: HMC-1.1 cells; experiment: 3H-thymidine incorporation assay; conditions: for IC50: Homo sapiens, read-out: 3H-thymidine uptake (IC50) HMC-1.1; for cell growth / proliferation (in words): HMC-1.1
Description: as §1, §2, §3

[3] = tested on: HMC-1.2 cells; experiment: induction of apoptosis (percentage of apoptotic cells on Wright-Giemsa-stained cytospin slides); conditions: for EC50: Homo sapiens, incubated with drugs for 24 hours
Description: (§4) Scramble control represents a mixture of A (adenine), G (guanine), T (thymine), and C (cytosine) bases, the resulting preparation containing an equimolar mixture of oligonucleotides. […] For transfection, 800,000 cells are seeded in 75 cm^2 culture plates at 37° C. for 24 hours. Mcl-1-ASO and Mcl-1 siRNA are complexed with Lipofectin-Reagent (Invitrogen) in RPMI 1640 medium essentially as described. […] After exposure to ASO, cells are washed and cultured in RPMI 1640 medium with 10% FCS in the presence or absence of various concentrations of TK inhibitors for another 12 hours before being analyzed. siRNA-treated cells are kept in control medium for 12 hours (without TK inhibitors) before being examined for the percentage of apoptotic cells and Western blotting.
(§5) Thereafter, 1 μCi ^3H-thymidine is added to each well. Sixteen hours later, cells are harvested on filter membranes (Packard Bioscience, Meriden, Conn.) in a Filtermate 196 harvester (Packard Bioscience). Filters are then air-dried, and the bound radioactivity is measured in a β-counter (Top-Count NXT, Packard Bioscience). All experiments are performed in triplicates. Cell viability is determined by the trypan blue exclusion test. The percentage of apoptotic cells is determined on Wright-Giemsa-stained cytospin slides employing conventional cytomorphologic criteria.
(§6) METHOD: Effects of mcl-1 antisense oligonucleotides on Mcl-1 protein expression and cell viability in HMC-1.1 and HMC-1.2 cells are analyzed. […] Western Blot analysis of Mcl-1 expression is performed using an anti-Mcl-1 antibody. β-Actin served as loading control. Evaluation of non-viable (trypan blue-positive) cells is expressed as percentage of all nucleated cells. Numbers (%) of apoptotic cells. Results represent the mean±S.D. from 3 independent experiments.
(§7) METHOD: [001] Effects of mcl-1-siRNA are analyzed in neoplastic mast cells on expression of Mcl-1 protein and cell viability in HMC-1.1 cells and HMC-1.2 cells. Cells are left untransfected (Control) or are transfected with either an mcl-1-specific siRNA (mcl-1-siRNA; 200 nM) or a luciferase-specific (control)-siRNA (luc-siRNA; 200 nM) as described herein. Mcl-1 protein expression is determined by Western blotting using a polyclonal anti-Mcl -1 antibody. Equal loading is confirmed by probing for β-Actin. Cell viability is analyzed by recording the percentage (%) of apoptotic cells. Results represent the mean±S.D. from 3 independent experiments in each set of experiments.
(§8) Mcl-1 protein expression is determined by Western blotting using a polyclonal anti-Mcl-1 antibody. Equal loading is confirmed by probing for β-Actin. Cell viability is analyzed by recording the percentage (%) of apoptotic cells.

[4] = tested on: HMC-1.1 cells; experiment: as above; conditions: for EC50: Homo sapiens, incubated with drugs for 24 hours
Description: as §4, §5, §6, §7, §8

[5] = tested on: Mcl-1 protein; experiment: Western blot analysis of Mcl-1 protein expression in HMC-1.2 cells; conditions: for expression of the Mcl-1 protein after targeted drugs: HMC-1.2 exhibiting KIT D816V, PKC412 1-10 μM, 2CdA 10-100 ng/ml, nilotinib and imatinib over the dose range tested
Description: (§9) Western blot analysis is performed as described previously using lysates of HMC-1 cells and a polyclonal rabbit anti-human Mcl-1 antibody (Santa Cruz Biotechnology, Santa Cruz, Calif.). In brief, cells are lysed in phosphate buffered saline (PBS) containing 1% Triton-X-100 (Sigma, St. Louis, Mo.). Proteins are separated under reducing conditions by SDS-polyacrylamide gel electrophoresis and transferred to nitrocellulose membranes (Protran, Schleicher & Schuell, Dassel, Germany) in transfer buffer. Membranes are then exposed to anti-mouse/anti-rabbit IgG (BM Chemiluminescence Western blotting Kit, Roche). […] Chemiluminescence is detected by exposure to a Biomax MS film (Kodak).
as §6, §7, §8

[6] = tested on: Mcl-1 protein; experiment: Western blot analysis of Mcl-1 protein expression in HMC-1.1 cells; conditions: for expression of the Mcl-1 protein after targeted drugs: HMC-1.1 lacking KIT D816V, PKC412 0.3-10 μM, nilotinib 10-300 nM, imatinib 30-300 nM, 2CdA up to 1,000 ng/ml
Description: as §9, §6, §7, §8

[7] = tested on: HMC-1.1 cells; experiment: combination of mcl-1 ASO and targeted drugs, combination index (CalcuSyn); conditions: drug combined with mcl-1 ASO
Description: To determine the level of significance in differences found in the evaluation of data, the paired student t-test is applied.
Results are expressed as percent of control (=scramble control) without targeted drug and represent the mean±SD of 3 independent experiments are analyzed. […] Results represent the mean±SD of 3 independent experiments. […] A combination index (CI) less than 1 indicates synergism.

[8] = 24 hours of incubation with drug

Nc1nc(Cl)nc2c1ncn2[C@H]1C[C@H](O)[C@@H](CO)O1 [2CdA, 2-chlorodeoxyadenosine]
IC50 [1, 8]: 0.005 to 0.02 µg/mL
IC50 [2, 8]: 0.1 to 0.3 µg/mL
EC50 [3]: > 1 µg/mL
induction of apoptosis (in words) ([4]; HMC-1.1): no significant effect
EC50 [4]: > 1 µg/mL

CO[C@@H]1[C@H](N(C)C(=O)c2ccccc2)C[C@H]2O[C@]1(C)n1c3ccccc3c3c4c(c5c6ccccc6n2c5c31)C(=O)NC4 [PKC412, N-[(9S,10R,11R,13R)-2,3,10,11,12,13-hexahydro-10-methoxy-9-methyl-1-oxo-9,13-epoxy-1H,9H-diindolo[1,2,3-gh:3′,2′,1′-lm]pyrrolo[3,4-j][1,7]benzodiazonin-11-yl]-N-methylbenzamide]
expression of the Mcl-1 protein after targeted drugs [5]: decreased the expression
expression of the Mcl-1 protein after targeted drugs [6]: down-regulate expression
cell growth / proliferation (in words) ([1]; HMC-1.2, pharmacologically relevant concentrations): counteract cell growth
cell growth / proliferation (in words) [2]: reduce cell growth
induction of apoptosis (in words) ([4]; HMC-1.1): induce apoptosis

mcl-1 siRNA: double-stranded mcl-1 siRNA (AAGAAACGCGGUAAUCGGACU, SEQ ID NO:8, and AGUCCGAUUACCGCGUUUCUU, SEQ ID NO:9) (chain 1 AAGAAACGCGGUAAUCGGACU; chain 2 AGUCCGAUUACCGCGUUUCUU; listed as RNA, chemistry not given here; listed as Homo sapiens)
expression of the Mcl-1 protein ([5]; HMC-1.2, siRNA 200 nM): downregulate expression
expression of the Mcl-1 protein ([6]; HMC-1.1, siRNA 200 nM): downregulate expression
apoptotic cells ([3]; HMC-1.2, siRNA 200 nM, 12 hours): increase in apoptotic cells
apoptotic cells ([4]; HMC-1.1, siRNA 200 nM, 12 hours): increase in apoptotic cells

Cc1ccc(NC(=O)c2ccc(CN3CCN(C)CC3)cc2)cc1Nc1nccc(-c2cccnc2)n1 [Imatinib]
expression of the Mcl-1 protein after targeted drugs [5]: no significant effects
expression of the Mcl-1 protein after targeted drugs [6]: down-regulate expression
induction of apoptosis (in words) ([4]; HMC-1.1): induce apoptosis

Cc1cn(-c2cc(NC(=O)c3ccc(C)c(Nc4nccc(-c5cccnc5)n4)c3)cc(C(F)(F)F)c2)cn1 [nilotinib, 4-methyl-3-[[4-(3-pyridinyl)-2-pyrimidinyl]amino]-N-[5-(4-methyl-1H-imidazol-1-yl)-3-(trifluoromethyl)phenyl]benzamide]
expression of the Mcl-1 protein after targeted drugs [5]: no significant effects
expression of the Mcl-1 protein after targeted drugs [6]: down-regulate expression
drug interaction with mcl-1 ASO (synergism, combination index less than 1) [7]: only synergistic in HMC-1.1 cells
IC50 ([1]; 24 hours of incubation with drugs): 1000 to 3000 nM
cell growth / proliferation (in words) [2]: reduce cell growth
IC50 ([2]; 24 hours of incubation with drugs or transfection with ASO): 3 to 10 nM
EC50 [3]: > 10000 nM
induction of apoptosis (in words) ([4]; HMC-1.1): induce apoptosis
EC50 [4]: 30 to 80 nM
